According to PMC5356007, “A conserved inter-domain communication mechanism regulates the ATPase activity of the AAA-protein Drg1” (Scientific Reports, 2017):
Where a chain is given by its changes, count along the chain named. Read-outs that look alike come from different tables or passages of the source.

What was measured:
[1] = target: T1, Drg1 (Saccharomyces cerevisiae, UniProt P32794, K563A); experiment: differential scanning fluorimetry; format: binding
T1 construct: gene AFG2; full-length type II AAA-ATPase, N-terminal GST-tag with PreScission site (plasmids derived from pAZ7), expressed in yeast from CUP1 promoter; Walker A mutants KA1 (K292A) and KA2 (K563A); hexamer in presence of nucleotide
T1 sequence (P32794 1-780 K563A): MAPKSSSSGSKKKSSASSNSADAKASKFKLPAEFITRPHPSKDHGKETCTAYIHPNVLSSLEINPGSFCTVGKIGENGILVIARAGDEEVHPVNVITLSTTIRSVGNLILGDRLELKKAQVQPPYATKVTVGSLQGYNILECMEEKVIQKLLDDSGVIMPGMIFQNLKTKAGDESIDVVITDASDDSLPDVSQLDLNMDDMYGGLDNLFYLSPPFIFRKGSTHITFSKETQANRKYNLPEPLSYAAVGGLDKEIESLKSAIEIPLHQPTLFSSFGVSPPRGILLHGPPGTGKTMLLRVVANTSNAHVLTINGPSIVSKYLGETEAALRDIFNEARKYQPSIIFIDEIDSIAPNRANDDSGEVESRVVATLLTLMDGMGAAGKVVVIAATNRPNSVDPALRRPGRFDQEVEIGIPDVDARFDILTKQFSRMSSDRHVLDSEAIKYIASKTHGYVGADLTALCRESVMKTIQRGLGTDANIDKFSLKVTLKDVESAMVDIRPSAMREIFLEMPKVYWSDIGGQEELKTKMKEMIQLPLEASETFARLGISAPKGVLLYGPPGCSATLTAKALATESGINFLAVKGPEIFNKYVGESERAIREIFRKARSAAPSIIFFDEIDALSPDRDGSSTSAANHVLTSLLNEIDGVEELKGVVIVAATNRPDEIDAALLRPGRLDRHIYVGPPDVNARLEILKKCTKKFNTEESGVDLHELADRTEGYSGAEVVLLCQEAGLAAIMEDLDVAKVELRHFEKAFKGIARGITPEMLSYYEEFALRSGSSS

[2] = target: T2, Drg1 (Saccharomyces cerevisiae, UniProt P32794, K292A); experiment: differential scanning fluorimetry; format: binding; details: read-out: Kd(ATP)
T2 construct: gene AFG2; full-length type II AAA-ATPase, N-terminal GST-tag with PreScission site (plasmids derived from pAZ7), expressed in yeast from CUP1 promoter; Walker A mutants KA1 (K292A) and KA2 (K563A); hexamer in presence of nucleotide
T2 sequence (P32794 1-780 K292A): T1 sequence (P32794 1-780 K563A) with K292A, A563K

SMILES	Kd ([1]; read-out: Kd(ADP)) [µM]	Kd [2] [µM]	Kd ([1]; read-out: Kd(ATP)) [µM]
Nc1ncnc2c1ncn2[C@@H]1O[C@H](COP(=O)(O)OP(=O)(O)O)[C@@H](O)[C@H]1O [ADP]	~120	–	–
Nc1ncnc2c1ncn2[C@@H]1O[C@H](COP(=O)(O)OP(=O)(O)OP(=O)(O)O)[C@@H](O)[C@H]1O [ATP]	–	~80	~20
